Data taken from US6723741B2, “Benzimidazoles and benzothiazoles and uses thereof” (Synaptic Pharmaceutical Corporation, priority 1996, dated 2004).
Where two headings read alike, the source gives them in different places.

Experiments:
[1] = biological target: T1, human α2A adrenergic receptor (Homo sapiens, UniProt P08913); assay: Agonist activity: inhibition of forskolin-stimulated cAMP synthesis; conditions: for I.A (Intrinsic Activity) Alpha-2 A: maximum activity relative to maximum activity induced by norepinephrine, human α2A
T1 sequence (P08913 1-465): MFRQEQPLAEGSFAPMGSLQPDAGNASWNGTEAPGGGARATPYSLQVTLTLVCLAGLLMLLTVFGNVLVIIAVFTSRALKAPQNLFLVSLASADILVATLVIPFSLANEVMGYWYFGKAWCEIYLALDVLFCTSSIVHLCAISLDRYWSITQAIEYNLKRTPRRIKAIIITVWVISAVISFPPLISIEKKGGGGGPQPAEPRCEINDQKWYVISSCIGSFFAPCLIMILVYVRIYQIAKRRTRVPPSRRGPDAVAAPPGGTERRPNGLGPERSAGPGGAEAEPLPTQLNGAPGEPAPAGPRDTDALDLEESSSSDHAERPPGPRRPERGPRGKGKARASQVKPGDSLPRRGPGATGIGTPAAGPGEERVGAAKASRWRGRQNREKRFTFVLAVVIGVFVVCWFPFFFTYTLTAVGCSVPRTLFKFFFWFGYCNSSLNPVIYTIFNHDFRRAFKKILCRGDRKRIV

[2] = biological target: T1, human α2A adrenergic receptor; assay: Radioligand binding assay, [3H]rauwolscine competition; set-up: expressed in transfected cells

Compound | EC50 [1] | I.A (Intrinsic Activity) Alpha-2 A [1] | Ki [2] | Ki ([2]; cloned human α2A, LM(tk-) cell membranes, [3H]rauwolscine, read-out: pKi Alpha-2 A (converted))
c1nc2cc(NC3=NCCN3)ccc2s1 [Example 13, 5-(2-Imidazolin-2-ylamino)benzothiazole] | 12.3 nM | 0.98 | 3.72 nM | –
Brc1cc(NC2=NCCN2)cc2cc[nH]c12 [Example 2, 7-Bromo-5-(2-imidazolin-2-ylamino)indole] | 0.437 nM | 0.46 | 0.724 nM | –
c1nc2ccc(NC3=NCCS3)cc2s1 [Example 15, 6-(2-Thiazolin-2-ylamino)benzothiazole] | 3090 nM | 0.58 | – | 115 nM
c1nc2ccc(NC3=NCCN3)cc2s1 [Example 14, 6-(2-Imidazolin-2-ylamino)benzothiazole] | – | 0.51 | – | –
